Source: patent US6955908B1, “Organism associated with nongonococcal urethritis” (priority 2000, dated 2005)

Tests used:
[1] = cited from earlier work
Ureaplasma = details: Stamm and colleagues; cited from earlier work
Chlamydia = details: single dose (Martin); cited from earlier work
[2] = test system: SPR (Spiky Rotating Cells); experiment: Treatment of patients with SPR infection; type: in vivo, human; details: oral treatment of patients
Text: My discovery of the novel SPR organism also provides for the treatment of SPR infections in male and female patients. The method involves first diagnosing the SPR infection, and then, upon obtaining a positive diagnosis, administering to the patient an SPR-inhibiting amount of an anti-SPR agent selected from the group consisting of itraconazole, ofloxacin, metronidazole.
One such drug is itraconazole, sold under the trade name SPORANOX®, available from Jansen Pharmaceuticals. The patient ingests one 200 mg tablet per day for three-four weeks.
The patient takes 500 mg twice per day for six weeks.
Yet another drug that is effective in treating SPR infection is ofloxacin, sold under the trade name FLOXIN®. The patient takes 400 mg twice per day for two weeks.

SMILES	cases of NGU cured ([1]; Stamm and colleagues) [%]	overall effectiveness in NGU compared with Doxycycline ([1]; Stamm and colleagues)	Ureaplasma cases that responded (Ureaplasma) [%]	efficacy in uncomplicated chlamydial urethritis compared with Doxycycline (Chlamydia)	clinical efficacy in refractory cases ([1]; refractory cases, smaller series (Toth))	effectiveness in treating infection with SPR [2]
CC[C@H]1OC(=O)[C@H](C)[C@@H](O[C@H]2C[C@@](C)(OC)[C@@H](O)[C@H](C)O2)[C@H](C)[C@@H](O[C@@H]2O[C@H](C)C[C@H](N(C)C)[C@H]2O)[C@](C)(O)C[C@@H](C)CN(C)[C@H](C)[C@@H](O)[C@]1(C)O [Azithromycin]	78	overall as effective as Doxycyline	47	comparable to Doxycycline	–	–
Cc1ncc([N+](=O)[O-])n1CCO [metronidazole]	–	–	–	–	good clinical efficacy	can be used to treat SPR infection
